# Assay results: ChEMBL document CHEMBL5233266, “β-Carboline as a Privileged Scaffold for Multitarget Strategies in Alzheimer's Disease Therapy” (J Med Chem, 2021)
# How the values were obtained:
# [1] = target: Gamma-aminobutyric acid receptor subunit alpha-2 (Rattus norvegicus, UniProt P23576); assay: Displacement of [3H]-flumazenil from rat recombinant alpha2 GABAA receptor assessed as inhibition constant in presence of zolpidem
# [2] = target: Gamma-aminobutyric acid receptor subunit alpha-1 (Rattus norvegicus, UniProt P62813); assay: Displacement of [3H]-flumazenil from rat recombinant alpha1 GABAA receptor assessed as inhibition constant in presence of zolpidem
# Sequence of Gamma-aminobutyric acid receptor subunit alpha-1 (Rattus norvegicus, UniProt P62813) (P62813 whole entry): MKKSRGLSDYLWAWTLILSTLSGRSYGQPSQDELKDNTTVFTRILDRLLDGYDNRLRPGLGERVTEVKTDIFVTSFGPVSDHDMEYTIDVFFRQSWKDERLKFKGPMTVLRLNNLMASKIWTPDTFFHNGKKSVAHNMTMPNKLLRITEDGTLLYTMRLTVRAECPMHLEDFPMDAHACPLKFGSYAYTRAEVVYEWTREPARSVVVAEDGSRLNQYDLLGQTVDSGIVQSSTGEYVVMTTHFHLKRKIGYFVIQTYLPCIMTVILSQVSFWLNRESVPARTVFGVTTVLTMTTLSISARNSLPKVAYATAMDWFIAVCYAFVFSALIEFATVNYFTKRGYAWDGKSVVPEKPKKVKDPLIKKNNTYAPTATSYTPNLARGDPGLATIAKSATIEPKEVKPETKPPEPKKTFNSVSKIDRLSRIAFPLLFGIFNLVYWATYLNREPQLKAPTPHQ
# [3] = target: Cyclin-dependent kinase 2 (Homo sapiens, UniProt P24941); assay: Inhibition of CDK2 (unknown origin)
# [4] = target: Dual specificity protein kinase CLK3 (Homo sapiens, UniProt P49761); assay: Inhibition of CLK3 (unknown origin)
# [5] = target: Tyrosine-protein kinase Lck (Homo sapiens, UniProt P06239); assay: Inhibition of LCK (unknown origin)
# Sequence of Tyrosine-protein kinase Lck (P06239 whole entry): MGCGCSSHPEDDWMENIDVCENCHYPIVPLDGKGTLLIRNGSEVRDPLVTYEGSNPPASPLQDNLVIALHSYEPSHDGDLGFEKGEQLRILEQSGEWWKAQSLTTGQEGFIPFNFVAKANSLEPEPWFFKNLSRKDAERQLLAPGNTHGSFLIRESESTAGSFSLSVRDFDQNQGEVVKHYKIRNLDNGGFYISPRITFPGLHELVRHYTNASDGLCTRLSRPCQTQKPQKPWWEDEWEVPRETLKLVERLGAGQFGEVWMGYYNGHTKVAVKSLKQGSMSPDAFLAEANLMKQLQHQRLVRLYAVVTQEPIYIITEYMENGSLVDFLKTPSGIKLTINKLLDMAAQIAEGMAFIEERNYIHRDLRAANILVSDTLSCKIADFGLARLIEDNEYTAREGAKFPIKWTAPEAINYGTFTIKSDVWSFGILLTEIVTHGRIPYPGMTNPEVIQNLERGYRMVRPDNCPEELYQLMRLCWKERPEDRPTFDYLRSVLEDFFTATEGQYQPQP
# [6] = target: Tyrosine-protein kinase Fyn (Homo sapiens, UniProt P06241); assay: Inhibition of FYN (unknown origin)
# Sequence of Tyrosine-protein kinase Fyn (P06241 whole entry): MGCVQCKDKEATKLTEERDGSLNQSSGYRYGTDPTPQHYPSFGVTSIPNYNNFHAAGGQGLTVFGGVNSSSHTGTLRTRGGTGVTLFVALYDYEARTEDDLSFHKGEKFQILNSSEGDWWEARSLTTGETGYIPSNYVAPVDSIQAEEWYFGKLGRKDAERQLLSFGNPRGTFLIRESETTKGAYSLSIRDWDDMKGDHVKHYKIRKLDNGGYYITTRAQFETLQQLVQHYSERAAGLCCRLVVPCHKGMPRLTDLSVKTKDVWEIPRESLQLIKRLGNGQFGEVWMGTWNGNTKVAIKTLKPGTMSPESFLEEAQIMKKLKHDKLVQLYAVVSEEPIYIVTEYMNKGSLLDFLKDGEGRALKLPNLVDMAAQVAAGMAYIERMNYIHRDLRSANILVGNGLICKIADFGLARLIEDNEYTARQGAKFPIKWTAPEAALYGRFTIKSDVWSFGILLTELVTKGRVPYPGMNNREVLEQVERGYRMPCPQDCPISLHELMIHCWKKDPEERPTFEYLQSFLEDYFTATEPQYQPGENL
# Protein kinase C (PKC) = assay: Inhibition of PKC (unknown origin); format: protein assay, Homo sapiens
# [7] = target: Tyrosine-protein kinase Lyn (Homo sapiens, UniProt P07948); assay: Inhibition of LYN (unknown origin)
# [8] = target: cAMP-dependent protein kinase (PKA) (Homo sapiens, UniProt P22694+P17612+P22612); assay: Inhibition of PKA (unknown origin); format: protein assay
# [9] = target: Mitogen-activated protein kinase 1 (Homo sapiens, UniProt P28482); assay: Inhibition of ERK2 (unknown origin)
# Sequence of Mitogen-activated protein kinase 1 (P28482 whole entry): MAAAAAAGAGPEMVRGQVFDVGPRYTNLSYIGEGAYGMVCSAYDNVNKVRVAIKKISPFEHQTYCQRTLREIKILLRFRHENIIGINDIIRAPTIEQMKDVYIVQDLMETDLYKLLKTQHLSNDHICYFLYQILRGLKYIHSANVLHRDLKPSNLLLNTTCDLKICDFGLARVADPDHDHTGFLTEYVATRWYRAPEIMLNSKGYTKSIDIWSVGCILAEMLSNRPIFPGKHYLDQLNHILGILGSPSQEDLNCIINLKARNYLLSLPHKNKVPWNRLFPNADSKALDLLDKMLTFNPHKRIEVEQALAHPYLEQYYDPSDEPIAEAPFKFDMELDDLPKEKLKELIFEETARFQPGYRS
# [10] = target: Dual specificity protein kinase CLK2 (Homo sapiens, UniProt P49760); assay: Inhibition of CLK2 (unknown origin)
# Sequence of Dual specificity protein kinase CLK2 (P49760 whole entry): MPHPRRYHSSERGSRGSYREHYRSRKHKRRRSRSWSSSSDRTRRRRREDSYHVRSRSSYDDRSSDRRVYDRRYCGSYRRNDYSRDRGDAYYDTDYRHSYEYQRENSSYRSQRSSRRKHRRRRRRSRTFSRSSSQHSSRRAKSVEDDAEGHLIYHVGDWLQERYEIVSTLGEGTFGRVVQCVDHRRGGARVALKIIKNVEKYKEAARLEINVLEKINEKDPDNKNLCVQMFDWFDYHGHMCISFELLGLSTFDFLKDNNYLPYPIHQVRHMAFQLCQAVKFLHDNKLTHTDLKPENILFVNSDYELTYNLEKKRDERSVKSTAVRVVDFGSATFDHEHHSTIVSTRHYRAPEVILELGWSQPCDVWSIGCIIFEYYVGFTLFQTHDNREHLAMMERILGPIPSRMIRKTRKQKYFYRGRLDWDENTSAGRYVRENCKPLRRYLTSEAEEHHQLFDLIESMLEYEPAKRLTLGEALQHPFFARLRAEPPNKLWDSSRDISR
# [11] = target: GABA-A receptor; anion channel; assay: Displacement of [3H]flunitrazepam from GABAA (unknown origin ) receptor by radioligand binding assay; format: protein-complex assay, Homo sapiens
# [12] = target: Rho-associated protein kinase 2 (Homo sapiens, UniProt O75116); assay: Inhibition of ROCK2 (unknown origin)
# Sequence of Rho-associated protein kinase 2 (O75116 whole entry): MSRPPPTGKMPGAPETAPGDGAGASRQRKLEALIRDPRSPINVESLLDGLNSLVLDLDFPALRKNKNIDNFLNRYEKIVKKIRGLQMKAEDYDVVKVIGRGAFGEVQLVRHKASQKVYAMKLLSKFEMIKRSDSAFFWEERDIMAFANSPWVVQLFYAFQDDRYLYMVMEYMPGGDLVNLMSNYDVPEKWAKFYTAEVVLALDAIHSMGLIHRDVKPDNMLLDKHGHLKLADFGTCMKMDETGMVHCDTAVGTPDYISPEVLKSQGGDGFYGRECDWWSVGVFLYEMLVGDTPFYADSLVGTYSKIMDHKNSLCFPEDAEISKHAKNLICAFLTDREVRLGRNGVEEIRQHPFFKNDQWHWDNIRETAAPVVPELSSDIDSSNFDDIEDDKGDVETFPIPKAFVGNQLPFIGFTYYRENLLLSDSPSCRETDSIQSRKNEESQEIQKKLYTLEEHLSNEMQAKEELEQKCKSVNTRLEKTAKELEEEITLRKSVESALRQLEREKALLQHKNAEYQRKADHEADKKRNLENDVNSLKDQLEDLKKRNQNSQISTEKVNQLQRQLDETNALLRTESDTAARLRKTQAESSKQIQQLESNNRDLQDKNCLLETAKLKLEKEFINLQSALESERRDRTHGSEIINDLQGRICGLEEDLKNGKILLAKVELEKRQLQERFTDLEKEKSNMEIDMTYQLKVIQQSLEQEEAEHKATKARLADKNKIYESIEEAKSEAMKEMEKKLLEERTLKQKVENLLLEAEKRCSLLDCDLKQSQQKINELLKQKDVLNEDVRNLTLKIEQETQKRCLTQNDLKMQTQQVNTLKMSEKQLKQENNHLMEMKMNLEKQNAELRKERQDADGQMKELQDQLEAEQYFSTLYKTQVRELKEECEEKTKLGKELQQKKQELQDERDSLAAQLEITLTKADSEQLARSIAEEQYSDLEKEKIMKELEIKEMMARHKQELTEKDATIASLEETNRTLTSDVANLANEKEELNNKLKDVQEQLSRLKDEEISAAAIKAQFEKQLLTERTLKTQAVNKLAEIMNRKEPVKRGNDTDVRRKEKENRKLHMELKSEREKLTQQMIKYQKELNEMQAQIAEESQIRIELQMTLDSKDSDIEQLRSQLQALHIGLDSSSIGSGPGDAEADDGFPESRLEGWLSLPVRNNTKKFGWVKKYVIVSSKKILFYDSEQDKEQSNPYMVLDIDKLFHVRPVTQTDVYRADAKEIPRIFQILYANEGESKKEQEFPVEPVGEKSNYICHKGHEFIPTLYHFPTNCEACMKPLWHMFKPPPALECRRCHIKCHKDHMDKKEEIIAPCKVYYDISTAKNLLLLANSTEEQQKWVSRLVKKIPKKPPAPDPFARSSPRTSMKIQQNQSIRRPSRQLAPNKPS
# [13] = target: Rho-associated protein kinase 1 (Homo sapiens, UniProt Q13464); assay: Inhibition of ROCK1 (unknown origin)
# [14] = target: Dual specificity protein kinase CLK4 (Homo sapiens, UniProt Q9HAZ1); assay: Inhibition of CLK4 (unknown origin)
# [15] = target: T1, Gamma-aminobutyric acid receptor subunit alpha-6 (Homo sapiens, UniProt Q16445); assay: Binding affinity to human recombinant GABAA alpha6 receptor assessed as inhibition constant incubated for 1 hrs by liquid scintillation counting analysis
# T1 sequence (Q16445 whole entry): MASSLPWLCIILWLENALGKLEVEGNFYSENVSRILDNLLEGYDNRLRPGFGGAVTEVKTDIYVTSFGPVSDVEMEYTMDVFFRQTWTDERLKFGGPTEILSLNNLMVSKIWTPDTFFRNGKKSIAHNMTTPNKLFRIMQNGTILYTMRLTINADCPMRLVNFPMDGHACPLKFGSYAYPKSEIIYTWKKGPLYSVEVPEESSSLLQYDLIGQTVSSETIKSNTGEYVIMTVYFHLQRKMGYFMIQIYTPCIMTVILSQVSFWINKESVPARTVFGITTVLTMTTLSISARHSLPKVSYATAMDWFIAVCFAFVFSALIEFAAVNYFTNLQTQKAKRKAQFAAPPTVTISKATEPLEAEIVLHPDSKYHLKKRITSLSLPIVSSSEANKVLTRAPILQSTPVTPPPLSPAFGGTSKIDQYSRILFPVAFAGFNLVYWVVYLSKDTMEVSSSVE
# [16] = target: T2, Gamma-aminobutyric acid receptor subunit alpha-4 (Homo sapiens, UniProt P48169); assay: Inhibition of human recombinant GABAA alpha4 receptor
# T2 sequence (P48169 whole entry): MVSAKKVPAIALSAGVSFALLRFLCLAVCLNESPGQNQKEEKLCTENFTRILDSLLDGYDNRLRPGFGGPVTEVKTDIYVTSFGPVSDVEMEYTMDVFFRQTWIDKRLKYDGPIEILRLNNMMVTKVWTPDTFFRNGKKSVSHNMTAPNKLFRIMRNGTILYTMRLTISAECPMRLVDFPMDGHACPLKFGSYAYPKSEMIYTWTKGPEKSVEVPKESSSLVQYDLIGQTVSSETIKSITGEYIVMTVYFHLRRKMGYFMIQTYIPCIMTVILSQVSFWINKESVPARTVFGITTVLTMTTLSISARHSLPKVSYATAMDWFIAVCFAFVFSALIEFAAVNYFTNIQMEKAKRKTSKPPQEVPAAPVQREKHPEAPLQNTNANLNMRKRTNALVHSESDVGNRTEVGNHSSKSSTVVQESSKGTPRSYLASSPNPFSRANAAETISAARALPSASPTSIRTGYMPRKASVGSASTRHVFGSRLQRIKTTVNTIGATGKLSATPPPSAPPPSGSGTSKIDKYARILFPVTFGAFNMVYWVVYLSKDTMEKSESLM
# [17] = target: T3, Gamma-aminobutyric acid receptor subunit alpha-1 (Homo sapiens, UniProt P14867); assay: Binding affinity to human recombinant GABAA alpha1 receptor assessed as inhibition constant incubated for 1 hrs by liquid scintillation counting analysis
# T3 sequence (P14867 whole entry): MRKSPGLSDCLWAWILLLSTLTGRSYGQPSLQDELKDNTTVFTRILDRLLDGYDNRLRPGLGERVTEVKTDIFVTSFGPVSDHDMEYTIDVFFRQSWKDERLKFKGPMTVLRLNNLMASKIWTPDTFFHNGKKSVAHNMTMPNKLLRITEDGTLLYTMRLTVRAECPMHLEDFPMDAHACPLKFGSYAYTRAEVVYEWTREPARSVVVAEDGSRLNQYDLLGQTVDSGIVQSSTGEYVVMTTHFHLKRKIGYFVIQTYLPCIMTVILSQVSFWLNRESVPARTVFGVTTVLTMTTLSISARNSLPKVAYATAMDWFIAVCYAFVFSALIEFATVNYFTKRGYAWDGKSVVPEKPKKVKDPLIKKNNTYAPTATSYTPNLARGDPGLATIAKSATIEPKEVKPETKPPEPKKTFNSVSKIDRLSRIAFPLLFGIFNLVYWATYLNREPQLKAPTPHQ
# [18] = target: T4, Gamma-aminobutyric acid receptor subunit alpha-2 (Homo sapiens, UniProt P47869); assay: Inhibition of human recombinant GABAA alpha2 receptor
# T4 sequence (P47869 whole entry): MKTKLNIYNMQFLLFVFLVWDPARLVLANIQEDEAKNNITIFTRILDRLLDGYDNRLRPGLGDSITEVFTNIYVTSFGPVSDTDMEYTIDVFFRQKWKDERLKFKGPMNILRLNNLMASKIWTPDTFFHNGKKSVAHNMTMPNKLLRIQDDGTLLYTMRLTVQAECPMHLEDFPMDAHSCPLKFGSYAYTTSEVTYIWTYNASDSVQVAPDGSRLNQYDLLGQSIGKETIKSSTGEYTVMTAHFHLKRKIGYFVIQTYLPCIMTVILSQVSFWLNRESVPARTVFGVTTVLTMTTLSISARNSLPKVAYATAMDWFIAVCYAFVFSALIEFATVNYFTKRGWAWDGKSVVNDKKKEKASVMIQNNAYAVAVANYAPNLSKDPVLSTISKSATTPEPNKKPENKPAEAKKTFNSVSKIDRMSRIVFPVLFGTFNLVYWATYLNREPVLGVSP
# [19] = target: T4, Gamma-aminobutyric acid receptor subunit alpha-2; assay: Binding affinity to human recombinant GABAA alpha2 receptor assessed as inhibition constant incubated for 1 hrs by liquid scintillation counting analysis
# [20] = target: T2, Gamma-aminobutyric acid receptor subunit alpha-4; assay: Binding affinity to human recombinant GABAA alpha4 receptor assessed as inhibition constant incubated for 1 hrs by liquid scintillation counting analysis
# [21] = target: T5, Gamma-aminobutyric acid receptor subunit alpha-5 (Homo sapiens, UniProt P31644); assay: Binding affinity to human recombinant GABAA alpha5 receptor assessed as inhibition constant incubated for 1 hrs by liquid scintillation counting analysis
# T5 sequence (P31644 whole entry): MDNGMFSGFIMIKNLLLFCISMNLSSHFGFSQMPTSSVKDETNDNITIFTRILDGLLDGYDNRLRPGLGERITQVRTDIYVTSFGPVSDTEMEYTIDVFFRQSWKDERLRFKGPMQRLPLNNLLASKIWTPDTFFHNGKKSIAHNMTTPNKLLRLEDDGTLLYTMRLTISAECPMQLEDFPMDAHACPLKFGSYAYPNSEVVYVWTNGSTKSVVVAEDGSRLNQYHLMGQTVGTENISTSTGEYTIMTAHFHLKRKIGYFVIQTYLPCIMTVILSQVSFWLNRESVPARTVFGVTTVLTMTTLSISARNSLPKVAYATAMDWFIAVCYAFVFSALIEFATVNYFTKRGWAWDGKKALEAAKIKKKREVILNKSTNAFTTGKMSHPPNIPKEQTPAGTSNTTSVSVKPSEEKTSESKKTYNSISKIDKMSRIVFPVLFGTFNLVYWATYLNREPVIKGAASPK
# [22] = target: T6, Gamma-aminobutyric acid receptor subunit alpha-3 (Homo sapiens, UniProt P34903); assay: Inhibition of human recombinant GABAA alpha3 receptor
# T6 sequence (P34903 whole entry): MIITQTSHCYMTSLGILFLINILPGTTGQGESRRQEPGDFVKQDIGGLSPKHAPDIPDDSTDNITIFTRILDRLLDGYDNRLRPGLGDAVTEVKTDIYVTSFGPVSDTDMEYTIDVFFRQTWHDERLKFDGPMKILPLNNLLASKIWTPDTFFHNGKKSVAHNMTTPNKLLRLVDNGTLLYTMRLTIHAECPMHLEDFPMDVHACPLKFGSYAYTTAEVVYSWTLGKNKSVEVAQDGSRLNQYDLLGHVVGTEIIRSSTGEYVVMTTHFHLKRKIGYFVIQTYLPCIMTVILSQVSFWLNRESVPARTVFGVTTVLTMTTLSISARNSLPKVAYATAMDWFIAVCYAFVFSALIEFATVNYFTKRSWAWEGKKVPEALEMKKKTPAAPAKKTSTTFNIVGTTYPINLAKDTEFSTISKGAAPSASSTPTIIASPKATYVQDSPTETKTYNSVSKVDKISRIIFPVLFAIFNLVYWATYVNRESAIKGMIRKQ
# [23] = target: T5, Gamma-aminobutyric acid receptor subunit alpha-5; assay: Inhibition of human recombinant GABAA alpha5 receptor
# [24] = target: T3, Gamma-aminobutyric acid receptor subunit alpha-1; assay: Inhibition of human recombinant GABAA alpha1 receptor
# [25] = target: T1, Gamma-aminobutyric acid receptor subunit alpha-6; assay: Inhibition of human recombinant GABAA alpha6 receptor
# [26] = target: T6, Gamma-aminobutyric acid receptor subunit alpha-3; assay: Binding affinity to human recombinant GABAA alpha3 receptor assessed as inhibition constant incubated for 1 hrs by liquid scintillation counting analysis
structure (smiles),measurement,setting,value
Cn1c2ccc(F)cc2c2c(C(=O)N3CCCC3)cn(-c3ccccc3)c(=O)c21,Ki,[1],12 nM
same,Ki,[2],7 nM
COc1ccc2c(c1)[nH]c1c(C)nccc12 [HARMINE],IC50,[3],33000 nM
same,IC50,[4],3000 nM
same,IC50,[5],> 250000 nM
same,IC50,[6],> 250000 nM
same,IC50,Protein kinase C (PKC),> 250000 nM
same,IC50,[7],> 250000 nM
same,IC50,[8],> 250000 nM
same,IC50,[9],> 30000 nM
same,IC50,[10],120 nM
same,IC50,[11],> 100000 nM
same,IC50,[12],> 40000 nM
same,IC50,[13],1500 nM
same,IC50,[14],24 nM
CC(OC(=O)c1cc2c(cn1)[nH]c1ccccc12)c1ccccc1 (configuration not stated),Ki,[15],3000 nM
same,IC50,[16],> 1000 nM
same,Ki,[17],34 nM
same,IC50,[18],> 1000 nM
same,Ki,[19],1000 nM
same,Ki,[20],1000 nM
same,Ki,[21],1000 nM
same,IC50,[22],> 1000 nM
same,IC50,[23],> 1000 nM
same,IC50,[24],34 nM
same,IC50,[25],> 1000 nM
same,Ki,[26],1000 nM
